Results taken from US8466309B2, “Amino acid derivatives, method for preparing same, and therapeutic use thereof” (priority 2008, dated 2013).

How the values were obtained:
Assay type in all cases: in vivo
male OF1 mice [1] = assay: Plantar test: thermal hyperalgesia after partial ligature of the sciatic nerve
Description: (§1) This test was described in detail by A. B. Malmberg and A. I. Basbaum, Partial sciatic nerve injury in the mouse as a model of neuropathic pain: behavioural and neuroanatomical correlates. Pain, (1998) 76, 215-222.
(§2) It was conducted on male OF1 mice (Charles River), of 18-20 g, n=39, by partial ligature of the sciatic nerve on the ipsilateral side. The animals are tested in the period (3-26 days) after the operation.
Measurement of hyperalgesia was carried out according to the method described by K. Hargreaves et al., A new sensitive method for measuring thermal nociception in cutaneous hyperalgesia, Pain, (1988), 32, 77-88, by using as a heat source, the “Plantar test” apparatus (Bioseb, France). The intensity of the nociceptive stimulus is calibrated to 8-10 s with an automatic stopping threshold (cut-off time) at 20 s. The average of the withdrawals of the paw induced by the heat, was measured on the ipsilateral paws (damaged nerve) and contralateral paws (intact nerve). This measurement was carried out 3 times on each paw. Mechanical allodynia is measured as described by S. R. Chaplan et al., Quantitative assessment of tactile allodynia in the rat paw, J. Neurosci. Meth. (1994), 53, 55-63. The ipsilateral (lesion) and contralateral (control) paws are tested as earlier. The mechanical antiallodynic effect is measured by the method of Von Frey with filaments of increasing size exerting also increasing pressure.
FIG. 3: Neuropathic pain model: partial ligature of the sciatic nerve (mice). Response generated by per os administration of the carrier (□) or of the compound of Example 10 (▪): removal of the paw (in second) versus time (in minutes).
Carrier: EtOH/0.5% methylcellulose (1.5/98.5)
Tests carried out at day 14 post-surgery; ipsilateral paw
Abscissa: time in minutes, ordinate: withdrawal of the paw in seconds
Plantar test: evaluation of thermal hyperalgia
Average of the contralateral paws: compound 10 at 90 min=8.3 s.

male OF1 mice [2] = assay: Von Frey test: mechanical allodynia after partial ligature of the sciatic nerve; conditions: oral 50 mg/kg, maximum at 60 min, day 14 post-surgery
Description: as §1, §2
Measurement of hyperalgesia was carried out according to the method described by K. Hargreaves et al., A new sensitive method for measuring thermal nociception in cutaneous hyperalgesia, Pain, (1988), 32, 77-88, by using as a heat source, the “Plantar test” apparatus (Bioseb, France). The intensity of the nociceptive stimulus is calibrated to 8-10 s with an automatic stopping threshold (cut-off time) at 20 s. The average of the withdrawals of the paw induced by the heat, was measured on the ipsilateral paws (damaged nerve) and contralateral paws (intact nerve). […] Mechanical allodynia is measured as described by S. R. Chaplan et al., Quantitative assessment of tactile allodynia in the rat paw, J. Neurosci. […] The mechanical antiallodynic effect is measured by the method of Von Frey with filaments of increasing size exerting also increasing pressure.
The effect of the compound of Example 10 on mechanical allodynia is measured by the Von Frey test. […]

male OF1 mice [3] = assay: Formalin test (phase I), number of paw lickings after oral administration; conditions: 120 minutes after administration (FIG. 2)
Text: A/Formalin Test (Phase I) […]
The animals (male OF1 mice) come from the Charles River breeder (France) and weigh 25-35 g at the beginning of the experiment. The weight of each mouse is taken into account for administering the product.
The test is based on the procedure described by S. HUNSKAAR et al., Formalin test in mice, a useful technique for evaluating mild analgesics, J. Neurosci. Methods […], 14, 69-75.
The mice (n=8) are individually placed in a transparent enclosure (50×25 cm) and become accustomed to this environment for 20 minutes. After this period, 20 μL of formalin (5% HCHO) in solution in saline solution (H2O, 0.9% NaCl), are injected subcutaneously on the plantar face of the right paw of the animal. A 26 syringe connected to a microsyringe is used. Each mouse is then immediately placed back into the test enclosure and pain (nociceptive) responses are measured for 5 minutes (early phase). Only the lickings of the paw are counted. […]
The analgesic action of the product is measured by the decrease in the number of lickings of the lesioned paw, as compared with the number of lickings of the animal which has received the carrier alone. […]

| Compound | withdrawal of the paw, average of the contralateral paws (male OF1 mice [1]; 50 mg/kg, at 90 min, intact nerve side) [s] | maximum effect on thermal hyperalgesia (male OF1 mice [1]; p.o. 50 mg/kg, at 80 min) [%] | withdrawal of the paw (ipsilateral paw) (male OF1 mice [1]; p.o. 50 mg/kg, at 80 min, plantar test, day 14 post-surgery) [s] | decrease of thermal hyperalgesia induced by partial ligature of the sciatic nerve (male OF1 mice [1]; p.o. 50 mg/kg, period from 45 to 150 min, day 14 post-surgery, ipsilateral paw) | anti-allodynic effect, maximum, as % of the maximum response (non-treated control) (male OF1 mice [2]) [%] | analgesic activity at 120 minutes (male OF1 mice [3]) |
| --- | --- | --- | --- | --- | --- | --- |
| CSCCC(CSSCC(Cc1ccccc1)C(=O)NCC(=O)O)NC(=O)OC(C)OC(=O)C(C)C (stereo not drawn) [Example 10, 1-{1-[2-(carboxymethyl-carbamoyl)-3-phenyl-propyl-disulfanylmethyl]-3-methylsulfanyl-propylcarbamoyl-oxy}-ethyl isobutyric acid ester] | 8.3 | 100 | 8.2 ± 0.9 | 65-100% | 75 | – |
| NH2—CH(CH2CH2SCH3)—CH2—S—S—CH2—CH(CH2C6H5)—CONH—CH2—CONH—CO—CH(CH3)—O—CO—OCH2CH3 [Compound 15] | – | – | – | – | – | no longer has any activity |
